# Measured values: doi:10.1101/2023.03.26.531482v1 (biorxiv, 2023)
# Like-named read-outs stand apart in the source and are kept apart here.
# Assays:
# [1] = target: MtDTBS (Mycobacterium tuberculosis dethiobiotin synthetase) (Mycobacterium tuberculosis, UniProt P9WPQ5)
# [2] = target: T1, MtDTBS (Mycobacterium tuberculosis dethiobiotin synthetase) (Mycobacterium tuberculosis, UniProt P9WPQ5); assay: biochemical
# T1 sequence (P9WPQ5 1-226): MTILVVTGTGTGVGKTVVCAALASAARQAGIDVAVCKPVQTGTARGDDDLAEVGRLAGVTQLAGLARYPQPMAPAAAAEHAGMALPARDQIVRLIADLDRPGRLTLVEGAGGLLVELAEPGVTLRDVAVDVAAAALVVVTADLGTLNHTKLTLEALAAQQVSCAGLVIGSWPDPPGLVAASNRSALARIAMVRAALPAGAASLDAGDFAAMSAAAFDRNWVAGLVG
SMILES,Kd [1],Kd [2]
c1ccc2c(c1)CCC1(C2)NCCc2[nH]cnc21 (stereo not shown) [B1],1240 ± 180 µM,
O=C1CC(c2ccc(F)cc2)Cc2[nH]ncc21 (stereo not shown) [B3],620 ± 140 µM,
O=C1CC[N+](=Cc2cccc(C(F)(F)F)c2)[N-]1 [B7],680 ± 30 µM,
"O=C1Oc2ccccc2C2(O)C3CCCC3C12 (stereo not shown) [compound 1, 9b-hydroxy-6b,7,8,9,9a,9b-hexahydrocyclopenta[3,4]cyclobuta[1,2-c]chromen-6(6aH)-one]",,580 ± 40 µM
